Results published in publication PMC4051601, “Identification of NAD(P)H Quinone Oxidoreductase Activity in Azoreductases from P. aeruginosa: Azoreductases and NAD(P)H Quinone Oxidoreductases Belong to the Same FMN-Dependent Superfamily of Enzymes” (PLoS ONE, 2014).

What was measured:
paAzoR1 (PA0785) [1] = target: T1, paAzoR1 (PA0785) (Pseudomonas aeruginosa, UniProt Q9I5F3); assay: X-ray crystallography, […] A; format: binding
T1 construct: gene azoR1; pure recombinant protein, expressed and purified as described previously; dimer with FMN
T1 sequence (Q9I5F3 1-212): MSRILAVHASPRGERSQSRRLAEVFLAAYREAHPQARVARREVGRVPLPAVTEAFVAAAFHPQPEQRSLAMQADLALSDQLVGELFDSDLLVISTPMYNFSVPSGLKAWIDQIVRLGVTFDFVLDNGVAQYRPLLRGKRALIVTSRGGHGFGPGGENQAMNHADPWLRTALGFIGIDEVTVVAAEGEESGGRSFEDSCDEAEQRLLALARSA

paAzoR1 (PA0785) [2] = target: T1, paAzoR1 (PA0785); assay: X-ray crystallography, […] A; format: binding; conditions: FMN-bound enzyme; one of two active sites; occupancy 0.5; hydrogen bond to Tyr131; co-crystallised with 2 mM ligand, pH 8
paAzoR1 (PA0785) [3] = target: T1, paAzoR1 (PA0785); assay: NADPH oxidation at […] nm; format: biochemical; conditions: 50 uM quinone, 500 uM NADPH, 20 mM Tris-HCl pH 8, 100 mM NaCl, 5% DMSO; only a specific rate given
paAzoR3 (PA3223) = target: T2, paAzoR3 (PA3223) (Pseudomonas aeruginosa, UniProt Q9HZ17); assay: NADH oxidation at […] nm; format: biochemical; conditions: 50 uM quinone, 500 uM NADH, 20 mM Tris-HCl pH 8, 100 mM NaCl, 5% DMSO; only a specific rate given
T2 construct: gene azoR3; pure recombinant protein, expressed and purified as described previously
T2 sequence (Q9HZ17 1-213): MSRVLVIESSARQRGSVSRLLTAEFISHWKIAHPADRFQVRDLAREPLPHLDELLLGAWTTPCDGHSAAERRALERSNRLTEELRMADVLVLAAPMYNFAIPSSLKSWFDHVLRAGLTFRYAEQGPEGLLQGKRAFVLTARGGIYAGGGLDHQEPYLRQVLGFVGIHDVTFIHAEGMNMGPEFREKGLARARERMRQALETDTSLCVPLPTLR

**Q.** For `O=C1c2ccccc2C(=O)c2cc(S(=O)(=O)O)ccc21` [AQN, anthraquinone-2-sulphonate], which “X-ray crystallography, 1.8 A” value (paAzoR1 (PA0785) [1]; FMN-bound enzyme, one of two active sites, pi-stacking on FMN, co-crystallised with 2 mM ligand, pH 8) is on record?
**A.** structures of paAzoR1 bound to two quinone substrates (UQ1 and AQN) have been solved

**Q.** `Cc1cc2nc3c(=O)[nH]c(=O)nc-3n(C[C@H](O)[C@H](O)[C@H](O)COP(=O)(O)O)c2cc1C` [FMN] was tested. Which “X-ray crystallography, 1.8 A” value (paAzoR1 (PA0785) [1]; structure with AQN, FMN also seen in the UQ1 complex (4N9Q)) did it give?
**A.** AQN also forms π-π stacking interactions with the central ring of FMN

**Q.** `COC1=C(OC)C(=O)C(CC=C(C)C)=C(C)C1=O` [UQ1, Coenzyme Q1] was tested. Which “X-ray crystallography, 2.0 A” value (paAzoR1 (PA0785) [2]) did it give?
**A.** structures of paAzoR1 bound to two quinone substrates (UQ1 and AQN) have been solved

**Q.** Which “NADPH oxidation at 340 nm” value (paAzoR1 (PA0785) [3]) does the source give for `O=C1C=CC(=O)C=C1` [Bzq, Benzoquinone] here?
**A.** paAzoR1 has a preference for benzoquinones e.g. Bzq (Fig. 3a)

**Q.** `CC1=CC(=O)c2c(O)cccc2C1=O` [Plu, Plumbagin] was tested. Which “NADH oxidation at 340 nm” value (paAzoR3 (PA3223)) did it give?
**A.** paAzoR3 prefers naphthoquinones e.g. Plu (Fig. 3c)
